Source: the SangsterLogP compilation

Assay: method code SF-AS, from DOI: 10.1021/je900189v

| SMILES | logP |
| --- | --- |
| Nc1ccc(S(=O)(=O)Nc2ccc(Cl)c(Cl)c2)cc1 | 2.64 |
| Nc1ccc(S(=O)(=O)Nc2cc(Cl)ccc2Cl)cc1 | 2.45 |
| Cc1cc(N)ccc1S(=O)(=O)Nc1ccccc1[N+](=O)[O-] | 2.19 |
| Cc1ccc(Cl)cc1NS(=O)(=O)c1ccc(N)cc1 | 2.73 |
| Nc1ccc(S(=O)(=O)Nc2ccc([N+](=O)[O-])cc2Br)cc1 | 1.87 |
| O=S(=O)(Nc1ccc(Cl)cc1)c1ccccc1 | 3.44 |
| CC(=O)Nc1ccncc1NS(=O)(=O)c1ccc([N+](=O)[O-])cc1 | 0.71 |
| O=[N+]([O-])c1ccc(S(=O)(=O)Nc2nccs2)cc1 | 1.19 |
| Nc1ccc(S(=O)(=O)Nc2ccc(I)cc2)cc1 | 2.82 |
| Nc1ccc(S(=O)(=O)Nc2ccc([N+](=O)[O-])cc2)cc1 | 1.88 |
| Cc1cc(Cl)ccc1NS(=O)(=O)c1ccc(N)cc1 | 2.65 |
| CNS(=O)(=O)c1ccc(N)cc1 | 0.07 |
| O=S(=O)(Nc1cccc(Cl)c1Cl)c1ccccc1 | 3.45 |
| Cc1ccc(NS(=O)(=O)c2ccc([N+](=O)[O-])cc2)nc1 | 1.01 |

Continued, values first:

| logP | SMILES |
| --- | --- |
| 1.52 | CCN(CC)S(=O)(=O)c1ccc(N)cc1 |
| 1.89 | O=S(=O)(Nc1cccnc1Cl)c1ccccc1 |
| 3.17 | Nc1ccc(S(=O)(=O)Nc2cc(Cl)c(Cl)cc2Cl)cc1 |
| 2.62 | CCc1ccc(NS(=O)(=O)c2ccc(N)cc2)cc1 |
| 2.92 | Cc1ccc(NS(=O)(=O)c2ccc(N)cc2)cc1Cl |
| 1.58 | COc1ccc(NS(=O)(=O)c2ccc(N)cc2)cc1 |
| 1.54 | O=S(=O)(Nc1ncccc1Cl)c1ccccc1 |
| 2.23 | CCOc1ccc(NS(=O)(=O)c2ccc([N+](=O)[O-])cc2)cc1 |
| 2.72 | O=S(=O)(Nc1ccccc1Cl)c1ccccc1 |
| 2.73 | Cc1cc(N)ccc1S(=O)(=O)Nc1ccc(Cl)cc1 |
| 2.66 | Cc1cc(N)ccc1S(=O)(=O)Nc1ccccc1Cl |
| 2.08 | O=[N+]([O-])c1ccccc1NS(=O)(=O)c1ccccc1 |
| 2.47 | Nc1ccc(S(=O)(=O)Nc2ccc(Cl)cc2)cc1 |
| 2.98 | Nc1ccc(S(=O)(=O)Nc2ccccc2Cl)c(Cl)c1 |
| 2.48 | Nc1ccc(S(=O)(=O)Nc2ccc(Cl)cc2)c(Cl)c1 |
| 2.09 | O=[N+]([O-])c1ccc(NS(=O)(=O)c2ccccc2)cc1 |
| 2.37 | Cc1ccc(NS(=O)(=O)c2ccc(N)cc2)c(Cl)c1 |
| 2.43 | COc1c(Cl)cccc1NS(=O)(=O)c1ccc(N)cc1 |
